Measured values: patent US4804665A, “Azaspiro compounds and their use” (Takeda Chemical Industries, Ltd., priority 1986, dated 1989)
Structures can show the parent of a compound that is named as a salt.

Assays:
[1] = tested on: CO2-induced amnesia in mice; assay: Effect on CO2-induced amnesia in mice (passive avoidance response); format: in vivo, mice (male ICR); conditions: p.o.; for Anti-amnesia (latency, percent change of the mean time of the vehicle-treated control group): 30 min before the test, saline = 100; for minimal effective dose: Mus musculus, po, mice, read-out: Anti-amnesia MED (minimum effective dose for CO2-induced amnesia)
Description: Effect on CO2 -induced amnesia in mice Effect of the compound (I) on […] of passive avoidance response, induced by exposing mice to 100% CO2 gas, was evaluated. Male ICR mice (Japan Clea) aged 5 weeks were used. The experimental apparatus consisted of two chambers, in which one illuminated chamber (9×9×25 cm) was connected to a dark chamber (25×25×30 cm) with a guillotine door. Each mouse was placed in the illuminated chamber and then allowed to enter the dark one. When the mouse entered the dark chamber, the door was closed and AC 0.5 mA footshock was applied to the floor grid of the dark chamber. The mouse can memorize the experience after receiving the uncomfortable stimulus for a few weeks. Next, the consolidation processes of memory were disturbed by an experimental manipulation: Each mouse was placed under the hypoxic condition by being placed into a 4L desiccator filled with 100% CO2 gas, immediately after receiving the footshock in the dark chamber. When his respiratory function was stopped, the mouse was taken out from the desiccator and given an artificial respiration till recovering spontaneous respiration. This procedure disturbed the consolidation of the memory (experience of footshock). On the next day, a retention test was performed to see whether the mouse memorized the footshock or not. In the test, the mouse was again placed in the illuminated compartment and the latency to enter the dark compartment was measured. The mice subjected to hypoxia entered the dark compartment with short latency, 10-20 sec. […] The ameliorating effect of compounds on the amnesia induced by hypoxia was evaluated by the latency time, and was expressed as the percent change of the mean time of the vehicle-treated control group (Table 6.).

mice = assay: General Symptoms (Side Effects) in mice; format: in vivo; parameters: key: +++: marked; ++: moderate; +: mild; -: nondetected; conditions: i.p., observed for 4 hours; for Hypothermia / Sedation / Tremor: central effect; for Diarrhea / Mydriasis / Salivation: peripheral effect
Description: General Symptoms (Side Effects) Four mice were used for each group. Mice were placed in stainless steel cages (13×18×25 cm) and after a 1-hr habitation period the compounds were administered. […] Peripheral and central effects of the compounds were estimated with the incidences of diarrhea, salivation and mydriasis and with the incidences of tremor and sedation and a grade of hypothermia, respectively. The compounds which were soluble in saline were solubilized in saline and the other were suspended in 5% arabic gum solution. Each compound was administered intraperitoneally (i.p.).

[2] = LD50 value and Therapeutic index; conditions: mouse, in vivo, po; for LD50: mice; for selectivity ratio: ratio of LD50 value to MED for CO2-induced amnesia
From the text: LD50 value and Therapeutic index
Ten mice were used for each group. LD50 value and therapeutic index were estimated with the dose (mg/kg, p.o.) which induced death in 50% of mice and with a ratio of LD50 value to a minimum effective dose (MED) for CO2 -induced amnesia, respectively.

[3] = dose 0.3 mg/kg, * P < 0.05, ** P < 0.01

Structure (SMILES)	Anti-amnesia (latency, percent change of the mean time of the vehicle-treated control group) ([1]; dose 0.1 mg/kg, * P < 0.05) [%]	Hypothermia (mice)	Sedation (mice)	Tremor (mice)	Diarrhea (mice)	Mydriasis (mice)	Salivation (mice)	minimal effective dose [1] [mg/kg]	Anti-amnesia (latency, percent change of the mean time of the vehicle-treated control group) [1, 3] [%]	LD50 [2] [mg/kg]	selectivity ratio [2]	Anti-amnesia (latency, percent change of the mean time of the vehicle-treated control group) ([1]; dose 1.0 mg/kg, * P < 0.05) [%]
CON1C(=O)CC2(CCN(C)CC2)C1=O.Cl [Example 1, 2-Methoxy-8-methyl-2,8-diazaspiro[4,5]decane-1,3-dione hydrochloride]	277	-	++	++	-	-	+++					
CON1C(=O)CC2(CCNCC2)C1=O [Example 9, 2-Methoxy-2,8-diazaspiro[4,5]decane-1,3-dionehydrochloride]	227	+	++	-	++	-	+++	0.1	321	2010	20100	
CON1C(=O)CC2(CCN(C(=O)OCCBr)CC2)C1=O [Example 22, 8-(2-Bromoethoxycarbonyl)-2-methoxy-2,8-diazaspiro[4,5]decane-1,3-dione]		+	+	-	+	+	+					311
CCN1C(=O)CC2(CCN(C)CC2)C1=O [RS-86, reference compound]		+++	+++	+	+++	++	+++	0.3	258	574	1910	
